Assay results published in PubChem BioAssay (NCI).
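Step 1: Grow cells in 96-well plates. Step 2: Expose to compound for 48 hours at 5 concentrations. Step 3: Interpolate endpoints linearly; if unreached, use highest concentration. At the TGI there is no net growth.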

Key:
Test in all cases: DTP human tumour cell line panel, 48 h
[1] = system: NCI-H522 lung
[2] = system: SF-295 CNS
[3] = system: A549 NSCLC
[4] = system: SNB-19 CNS
[5] = system: UACC-257 melanoma
[6] = system: XF 498 CNS
[7] = system: SN12C renal
[8] = system: M19-MEL melanoma
[9] = system: CAKI-1 renal
[10] = system: M14 melanoma
[11] = system: ACHN renal
[12] = system: SK-OV-3 ovarian
[13] = system: SNB-78 CNS
[14] = system: UO-31 renal
[15] = system: OVCAR-5 ovarian
[16] = system: U251 CNS
[17] = system: SNB-75 CNS
[18] = system: SK-MEL-28 melanoma
[19] = system: HCC-2998 colon
[20] = system: KM20L2 colon
[21] = system: OVCAR-8 ovarian
[22] = system: TK-10 renal
[23] = system: NCI-H226 lung
[24] = system: SK-MEL-5 melanoma
[25] = system: LOX IMVI melanoma
[26] = system: K-562 leukemia
[27] = system: OVCAR-4 ovarian
[28] = system: CCRF-CEM leukemia
[29] = system: LXFL 529 NSCLC
[30] = system: OVCAR-3 ovarian
[31] = system: A498 renal
[32] = system: EKVX NSCLC
[33] = system: KM12 colon
[34] = system: MALME-3M melanoma
[35] = system: MOLT-4 leukemia
[36] = system: DMS 273 small cell lung
[37] = system: SW-620 colon
[38] = system: HT29 colon
[39] = system: 786-0 renal
[40] = system: HL-60(TB) leukemia
[41] = system: RPMI-8226 leukemia
[42] = system: RXF 393 renal
[43] = system: HOP-62 NSCLC
[44] = system: DLD-1 colon
[45] = system: NCI-H460 lung
[46] = system: HOP-92 NSCLC
[47] = system: NCI-H23 lung
[48] = system: SF-268 CNS
[49] = system: SF-539 CNS
[50] = system: COLO 205 colon
[51] = system: IGROV1 ovarian
[52] = system: SK-MEL-2 melanoma
[53] = system: DMS 114 small cell lung
[54] = system: HCT-15 colon
[55] = system: HCT-116 colon
[56] = system: HOP-18 NSCLC
[57] = system: SR leukemia
[58] = system: UACC-62 melanoma

CCOc1ccccc1NC(=O)C1=C(C)NC(C)=C(C(=O)Nc2ccccc2OCC)C1c1cccc([N+](=O)[O-])c1
TGI [1]: > 100 µM
TGI [2]: > 100 µM
TGI [3]: > 100 µM
TGI [4]: > 100 µM
TGI [5]: > 100 µM
TGI [6]: > 100 µM
TGI [7]: > 100 µM
TGI [8]: > 100 µM
TGI [9]: > 100 µM
TGI [10]: > 100 µM
TGI [11]: > 100 µM
TGI [12]: > 100 µM
TGI [13]: > 100 µM
TGI [14]: > 100 µM
TGI [15]: > 100 µM
TGI [16]: > 100 µM
TGI [17]: 89.3 µM
TGI [18]: > 100 µM
TGI [19]: > 100 µM
TGI [20]: > 100 µM
TGI [21]: > 100 µM
TGI [22]: > 100 µM
TGI [23]: > 100 µM
TGI [24]: > 100 µM
TGI [25]: > 100 µM
TGI [26]: > 100 µM
TGI [27]: > 100 µM
TGI [28]: > 100 µM
TGI [29]: > 100 µM
TGI [30]: > 100 µM
TGI [31]: > 100 µM
TGI [32]: > 100 µM
TGI [33]: > 100 µM
TGI [34]: > 100 µM
TGI [35]: > 100 µM
TGI [36]: > 100 µM
TGI [37]: > 100 µM
TGI [38]: > 100 µM
TGI [39]: > 100 µM
TGI [40]: > 100 µM
TGI [41]: > 100 µM
TGI [42]: > 100 µM
TGI [43]: > 100 µM
TGI [44]: > 100 µM
TGI [45]: > 100 µM
TGI [46]: 41.3 µM
TGI [47]: > 100 µM
TGI [48]: > 100 µM
TGI [49]: > 100 µM
TGI [50]: > 100 µM
TGI [51]: > 100 µM
TGI [52]: > 100 µM
TGI [53]: > 100 µM

OC(CCl)CN1CC[N+]2(CC1)CC[N+]1(CCN(CC(O)CCl)CC1)CC2 (stereo not drawn)
TGI [1]: > 50 µM
TGI [2]: > 50 µM
TGI [3]: > 50 µM
TGI [4]: > 50 µM
TGI [6]: > 50 µM
TGI [7]: > 50 µM
TGI [8]: > 50 µM
TGI [9]: > 50 µM
TGI [10]: > 50 µM
TGI [11]: > 50 µM
TGI [12]: > 50 µM
TGI [14]: > 50 µM
TGI [16]: > 50 µM
TGI [17]: > 50 µM
TGI [18]: > 50 µM
TGI [54]: > 50 µM
TGI [19]: > 50 µM
TGI [20]: > 50 µM
TGI [21]: > 50 µM
TGI [55]: > 50 µM
TGI [22]: > 50 µM
TGI [23]: > 50 µM
TGI [24]: > 50 µM
TGI [26]: > 50 µM
TGI [27]: > 50 µM
TGI [28]: > 50 µM
TGI [29]: > 50 µM
TGI [30]: > 50 µM
TGI [31]: > 50 µM
TGI [32]: > 50 µM
TGI [33]: > 50 µM
TGI [34]: > 50 µM
TGI [35]: > 50 µM
TGI [36]: > 50 µM
TGI [37]: > 50 µM
TGI [38]: > 50 µM
TGI [39]: > 50 µM
TGI [40]: > 50 µM
TGI [41]: > 50 µM
TGI [42]: > 50 µM
TGI [45]: > 50 µM
TGI [46]: > 50 µM
TGI [47]: > 50 µM
TGI [48]: > 50 µM
TGI [49]: > 50 µM
TGI [50]: > 50 µM
TGI [56]: > 50 µM
TGI [51]: > 50 µM
TGI [57]: > 50 µM
TGI [52]: > 50 µM
TGI [53]: > 50 µM

CC1=C(C(=O)NCc2ccccc2)C(c2ccco2)C(C(=O)NCc2ccccc2)=C(C)N1
TGI [1]: > 100 µM
TGI [2]: > 100 µM
TGI [3]: > 100 µM
TGI [4]: > 100 µM
TGI [5]: > 100 µM
TGI [6]: > 100 µM
TGI [7]: > 100 µM
TGI [9]: > 100 µM
TGI [10]: > 100 µM
TGI [11]: > 100 µM
TGI [12]: > 100 µM
TGI [13]: > 100 µM
TGI [14]: > 100 µM
TGI [15]: > 100 µM
TGI [16]: > 100 µM
TGI [17]: > 100 µM
TGI [18]: > 100 µM
TGI [54]: > 100 µM
TGI [19]: > 100 µM
TGI [20]: > 100 µM
TGI [21]: > 100 µM
TGI [55]: > 100 µM
TGI [22]: > 100 µM
TGI [23]: > 100 µM
TGI [24]: > 100 µM
TGI [25]: > 100 µM
TGI [26]: > 100 µM
TGI [27]: > 100 µM
TGI [28]: > 100 µM
TGI [29]: > 100 µM
TGI [30]: > 100 µM
TGI [31]: > 100 µM
TGI [32]: > 100 µM
TGI [33]: > 100 µM
TGI [34]: > 100 µM
TGI [35]: > 100 µM
TGI [36]: > 100 µM
TGI [37]: > 100 µM
TGI [38]: > 100 µM
TGI [40]: > 100 µM
TGI [58]: 50.6 µM
TGI [41]: > 100 µM
TGI [42]: > 100 µM
TGI [43]: > 100 µM
TGI [44]: > 100 µM
TGI [45]: > 100 µM
TGI [46]: > 100 µM
TGI [47]: > 100 µM
TGI [48]: > 100 µM
TGI [49]: > 100 µM
TGI [50]: > 100 µM
TGI [56]: > 100 µM
TGI [51]: > 100 µM
TGI [57]: > 100 µM
TGI [52]: 92.6 µM
TGI [53]: > 100 µM

N#C/C(=C1\OC(N)=C(c2ccc(Cl)cc2)C1=O)c1ccc(Cl)cc1
TGI [1]: 24.6 µM
TGI [2]: 29.2 µM
TGI [3]: 50.9 µM
TGI [4]: 39.6 µM
TGI [5]: 29 µM
TGI [7]: 23 µM
TGI [8]: 31.4 µM
TGI [9]: 34.1 µM
TGI [10]: 29.8 µM
TGI [11]: 33.1 µM
TGI [12]: 89.1 µM
TGI [13]: 31.4 µM
TGI [14]: 29.8 µM
TGI [15]: 9.74 µM
TGI [16]: 29.1 µM
TGI [17]: 32.4 µM
TGI [18]: 67.7 µM
TGI [19]: 30.9 µM
TGI [20]: 33 µM
TGI [21]: 26.3 µM
TGI [55]: 32.4 µM
TGI [22]: 41.4 µM
TGI [25]: 31.4 µM
TGI [26]: > 100 µM
TGI [27]: 32 µM
TGI [28]: 73.5 µM
TGI [29]: 24.3 µM
TGI [30]: 28 µM
TGI [31]: 31.1 µM
TGI [32]: 32.4 µM
TGI [33]: 31.4 µM
TGI [34]: 34.3 µM
TGI [35]: 50.9 µM
TGI [36]: 26.7 µM
TGI [37]: 25.9 µM
TGI [38]: 39.5 µM
TGI [39]: 29.4 µM
TGI [40]: 44.4 µM
TGI [58]: 27.5 µM
TGI [41]: 50 µM
TGI [42]: 25.4 µM
TGI [43]: 33.4 µM
TGI [44]: 30.9 µM
TGI [45]: 34 µM
TGI [46]: 32.2 µM
TGI [47]: 27.1 µM
TGI [48]: > 100 µM
TGI [49]: 27.6 µM
TGI [50]: 32.8 µM
TGI [56]: 30.8 µM
TGI [51]: 38.3 µM
TGI [57]: 54.7 µM
TGI [53]: 29.3 µM
